Measurements from PubChem BioAssay AID449745 (Broad Institute, 2010).
Inconclusive results are not listed. The source made the active and inactive calls. No rule for the calls is given here.

The compounds below were run against Zinc finger protein mex-5 (Caenorhabditis elegans) (UniProt Q9XUB2) (assay: MEX-5 RNA-binding inhibition confirmation – biochemical, C. elegans, fluorescence polarization, dose retest (AID 449745;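 also: potency is for blocking Mex-5 binding to labeled TCR2 RNA like unlabeled competitor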)). Conditions: Mex-5 / TCR-2 RNA binding.
Chain of Zinc finger protein mex-5 (Caenorhabditis elegans) (Q9XUB2 whole entry, looked up): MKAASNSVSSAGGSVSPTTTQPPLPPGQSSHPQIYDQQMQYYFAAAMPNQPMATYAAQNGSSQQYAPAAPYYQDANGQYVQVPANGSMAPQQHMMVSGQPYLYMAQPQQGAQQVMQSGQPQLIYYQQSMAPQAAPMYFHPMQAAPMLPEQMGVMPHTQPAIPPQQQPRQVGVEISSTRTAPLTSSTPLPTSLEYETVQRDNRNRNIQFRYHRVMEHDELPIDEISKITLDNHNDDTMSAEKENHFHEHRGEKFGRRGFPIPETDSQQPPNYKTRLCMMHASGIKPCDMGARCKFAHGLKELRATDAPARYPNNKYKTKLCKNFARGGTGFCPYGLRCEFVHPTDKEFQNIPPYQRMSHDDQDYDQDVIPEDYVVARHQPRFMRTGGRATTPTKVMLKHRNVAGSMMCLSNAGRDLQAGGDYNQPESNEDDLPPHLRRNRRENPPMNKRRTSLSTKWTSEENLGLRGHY
`NC(=O)c1c(NC(=O)C2COc3ccccc3O2)sc2c1CCN(Cc1ccccc1)C2` (centres undefined) was tested, and the AC50 was > 38 µM (inactive).
For `O=S(=O)(O)c1cccc2c(N=Nc3ccc(O)c4ncccc34)cccc12`, the AC50 was 3.04 µM.
`Cc1ccc([C@@H]2C3COCC=C3C(C#N)=C(N)C2(C#N)C#N)o1` (some centres undefined) was tested, and the AC50 was > 38 µM (inactive).
Compound `O=C(Cc1c(O)c2ccccc2oc1=O)c1ccc(C(F)(F)F)cc1` has an AC50 of 37.5 µM.
`CCOC(=O)c1c(NS(=O)(=O)c2ccccc2)n(CCCOC)c2nc3ccccc3nc12` was tested, and the AC50 was > 38 µM (inactive).
Compound `N#Cc1c(C#N)c(O)c2ccccc2c1O` has an AC50 of 11.3 µM.
For `Brc1ccc(C2=CC(c3cccs3)n3ncnc3N2)cc1` (centres undefined), the AC50 was 15.8 µM.
For `CCOC(=O)C1CCN(c2nc(N)c3c(N)nc(SCC(=O)O)cc3c2C#N)CC1`, the AC50 was 20.1 µM.
`COc1cccc(N=Nc2c(N)[nH][nH]c2=O)c1` showed an AC50 of 10.3 µM.
With `Cc1ccc(N2C(=O)NC(=O)/C(=C\c3ccc([N+](=O)[O-])o3)C2=O)cc1` the AC50 was 6.08 µM.
Work on `CCN1CCc2c(sc(N)c2C(N)=O)C1` yielded an AC50 of 37.4 µM.
`COC(=O)CCC(=O)OC1(C)C(=O)C2=CN(Cc3ccco3)C(c3ccc(OC)cc3)=CC2=C(Br)C1=O` (centres undefined) was tested, and the AC50 was 21.1 µM.
`N#C/C(=C\c1cccs1)C(=O)Nc1ccccn1` showed an AC50 of 32.6 µM.
For `CC(C)N1CCc2c(sc(NC(=O)c3ccc(S(=O)(=O)N4CCCCC4C)cc3)c2C(N)=O)C1` (centres undefined), the AC50 was > 38 µM (inactive).
`CCc1cccc2cc3c(N)c(C(=O)Nc4ccc(S(=O)(=O)N5CCCC5)cc4)sc3nc12` gave an AC50 of 8.06 µM.
In the case of `Oc1ccc(/C=N/n2c(-c3ccccc3)n[nH]c2=S)cc1Br`, the AC50 is reported as 13.1 µM.
`CC(C)(O)C(=O)NNC(=S)NCc1ccco1` showed an AC50 of 4.16 µM.
With `O=C(Cc1cccs1)Nc1nnc(SCc2ccc(Br)cc2)s1` the AC50 was > 38 µM (inactive).
With `C=C1c2cccc(O)c2C(O)=C2C(=O)[C@]3(O)C(O)=C(C(N)=O)C(=O)[C@@H](N(C)C)[C@@H]3[C@@H](O)[C@H]12` the AC50 was 17.7 µM.
`COc1ccccc1N1C(C)=CC(=C(C#N)c2nc3ccccc3s2)C=C1C` showed an AC50 of 13.4 µM.
In the case of `Cc1nn(C)cc1C(=O)NNC(=S)Nc1ccccc1`, the AC50 is reported as 19.5 µM.
In the case of `CCCCOc1ccc(-c2cc(C(F)(F)F)c(C#N)c(SCC(=O)O)n2)cc1`, the AC50 is reported as 11.8 µM.
Compound `Nc1cc2c3c(cccc3c1)C(=O)N(CCN1CCCC1)C2=O` has an AC50 of 16 µM.
`Cn1ncc2c(NNC(=O)c3ccc(Cl)cc3Cl)ncnc21` gave an AC50 of 12.7 µM.
`CSc1nc(N)c(N=Nc2ccc([As](=O)(O)O)cc2)c(=O)[nH]1` showed an AC50 of 17.7 µM.
Compound `N#CC1=C(N)N2C(=C(C#N)C1c1ccccc1)Sc1ccccc12` (centres undefined) has an AC50 of 5.23 µM.
`COCC1CCN(Cc2c(C(=O)N3CCc4ccccc4C3)nc3ccc(Cl)cn23)C1` (centres undefined) was tested, and the AC50 was 21.5 µM.
With `O=C1CSC(=S)N1/N=C/c1cc(Br)c(O)c(Br)c1` the AC50 was > 38 µM (inactive).
`O=c1ccc2cc3c([nH]c4ccc(Br)cc43)oc-2c1O` showed an AC50 of 3.77 µM.
`Cc1ccc(C)n1C(Cc1ccccc1)C(=O)O` (centres undefined) was tested, and the AC50 was 8.84 µM.
In the case of `OC(CNC1CCCC1)COc1ccccc1Br` (centres undefined), the AC50 is reported as > 38 µM (inactive).
For `Cc1cc(C)cc(NC(=O)N(C)Cc2ccccc2)c1`, the AC50 was > 38 µM (inactive).
With `Cc1ccc(C(=O)O)cc1N1C(=O)c2cccc3c([N+](=O)[O-])ccc(c23)C1=O` the AC50 was 25.6 µM.
`Oc1ccc(N=Nc2n[nH]c(-c3ccccc3)n2)cc1` gave an AC50 of 4.21 µM.
In the case of `CCCCC1=CC2=C(c3ccco3)C(=O)C(C)(OC(=O)c3ccc(OC)cc3)C(=O)C2=CN1C(CO)CO` (centres undefined), the AC50 is reported as > 38 µM (inactive).
In the case of `O=C(N/N=C/c1oc(O)c2ccccc12)c1ccccc1O`, the AC50 is reported as > 38 µM (inactive).
With `COc1ccc(CN2C(=O)NC(=O)/C(=C\c3ccco3)C2=O)cc1` the AC50 was 38.7 µM.
`O=C(O)CCN1C(=O)/C(=C\c2ccc(-c3nc4ccccc4s3)o2)SC1=S` was tested, and the AC50 was 3.89 µM.
Compound `COc1cccc(CN2C(=O)c3cccc(N)c3C2=O)c1` has an AC50 of 32 µM.
With `O=C1c2cccc3cccc(c23)C(=O)C1(O)O` the AC50 was 15.6 µM.
`COc1ccc2c(c1)c1nc3ccccc3nc1n2Cc1ccc(OC(C)C)c(OC)c1` was tested, and the AC50 was 24.3 µM.
In the case of `COc1cccc(OCC(=O)NNC(=O)c2cnccn2)c1`, the AC50 is reported as 0.315 µM.
`O=C1/C(=C\c2ccc(Br)cc2)SC(=S)N1NS(=O)(=O)c1ccccc1` showed an AC50 of 17.7 µM.
Compound `Cc1cccc2cc3c(N)c(C(=O)N4CCCc5ccccc54)sc3nc12` has an AC50 of 19.9 µM.
For `CCCCOc1ccc2c(c1)/C(=C(\C(Cl)=C(Cl)Cl)[N+](=O)[O-])N2`, the AC50 was 14.2 µM.
With `COc1ccc(C(=O)C/C(=C\C(=O)c2ccc(C)cc2)c2ccccc2)cc1` the AC50 was > 38 µM (inactive).
With `Cc1ccc(N=Nc2c(O)n(CN3CCOCC3)c3ccccc23)cc1` the AC50 was 11.4 µM.
`Cc1nn2c(N)csc2nc1=O` was tested, and the AC50 was 30 µM.
For `COc1ccc(N/C=C/C(=O)c2ccc3c(c2)OCO3)cc1OC`, the AC50 was > 38 µM (inactive).
Work on `O=C(c1ccc(Cl)cc1)C1C2C(=O)N(c3ccccc3)C(=O)C2C2CCCN21` (centres undefined) yielded an AC50 of 19.8 µM.
With `CCOC(=O)NNc1ccc2nonc2c1[N+](=O)[O-]` the AC50 was > 38 µM (inactive).
`COc1ccc2ccccc2c1CNCc1ccccn1` was tested, and the AC50 was > 38 µM (inactive).
Compound `O=c1[nH]c(=S)n(-c2ccc(Cl)cc2)c(O)c1C=Nc1ccc(N2CCOCC2)cc1` has an AC50 of 30 µM.
In the case of `N#CC(C#N)=NNc1ccc(S(N)(=O)=O)cc1`, the AC50 is reported as 7.56 µM.
With `CN1C(=O)/C(=C/c2cn(CC(=O)N3CCCCC3)c3ccccc23)c2ccccc21` the AC50 was > 38 µM (inactive).
With `Cc1cc2c(n1-c1ccc(C(=O)O)cc1)CCCCC2` the AC50 was 9.57 µM.
With `CC1=C(C#N)C(=O)N(C2CCS(=O)(=O)C2)C(=O)/C1=C\c1ccco1` (centres undefined) the AC50 was 3.22 µM.
`CC1CN(c2nc3ccccc3nc2C(C#N)C(=O)NCc2ccc3c(c2)OCO3)CC(C)O1` (centres undefined) gave an AC50 of 23.8 µM.
Work on `O=C1c2cccc3c(Cl)ccc(c23)C(=O)N1O` yielded an AC50 of 26.2 µM.
With `Cc1cc(C)cc(N2C(=O)NC(=O)/C(=C/c3cccn3-c3ccc(Cl)cc3)C2=O)c1` the AC50 was > 38 µM (inactive).
Compound `O=C1c2cccc3c(N4CCCCC4)ccc(c23)C(=O)N1c1ccccc1O` has an AC50 of 28.7 µM.
Compound `O=S(=O)(Nc1ccc(O)c(NS(=O)(=O)c2ccccc2)c1)c1ccccc1` has an AC50 of 6.92 µM.
Compound `Cc1cccc(N=Nc2c(O)[nH]c3ccc(F)cc23)c1` has an AC50 of 4.46 µM.
For `CCOC(=O)C(C(=O)OCC)c1cc(Br)c2noc3c2c1C(=O)c1ccccc1-3`, the AC50 was < 0.3 µM.
With `NS(=O)(=O)c1ccc(-c2ccc(C=C3C(=O)NC(=S)NC3=O)o2)cc1` the AC50 was 8.11 µM.
For `Cc1ccc(-c2cc(C(=O)O)c3cc(Br)ccc3n2)o1`, the AC50 was > 38 µM (inactive).
For `COC(=O)c1cc(O)c(O)c(O)c1`, the AC50 was 25.4 µM.
With `Nc1c(C(=O)C2CC2)sc2nc(-c3cccs3)cc(C(F)(F)F)c12` the AC50 was > 38 µM (inactive).
`COc1cc(N2CCCC2)c(OC)cc1/C=C(/C#N)c1cccc(Br)c1` was tested, and the AC50 was 10.3 µM.
In the case of `CCOC(=O)c1ccc(N=Nc2c(C)c(C#N)c(O)[nH]c2=O)cc1`, the AC50 is reported as 13.3 µM.
`N#C/C(=C\c1cccc([N+](=O)[O-])c1)c1nnc2n1CCCCC2` was tested, and the AC50 was > 38 µM (inactive).
`CCOC(=O)/C(C#N)=C/c1ccc(-c2ccsc2C(=O)OC)o1` was tested, and the AC50 was > 38 µM (inactive).
`O=C(O)COc1ccccc1C(Nc1cccnc1)c1cc(Cl)c2cccnc2c1O` (centres undefined) gave an AC50 of 10.5 µM.
`CCCCCCNC(=O)C(C#N)c1nc2ccccc2nc1N1CCOCC1` (centres undefined) was tested, and the AC50 was 13.3 µM.
`O=C(O)c1ccc(NS(=O)(=O)c2ccc3c(c2)C(=O)c2ccccc2C3=O)cc1` gave an AC50 of 28.4 µM.
`CCOc1ccc2nc(N3CCCN(C(=O)Nc4ccccc4C)CC3)c(C#N)cc2c1` showed an AC50 of 22.8 µM.
For `O=C(N/N=C/c1c(O)n(C2CC2)c(=S)[nH]c1=O)c1ccccc1O`, the AC50 was 27.5 µM.
For `CCOC(=O)/C=c1\s/c(=C\c2ccc3cc(OC)ccc3c2)c(=O)n1CC(=O)NCc1ccc2c(c1)OCO2`, the AC50 was > 38 µM (inactive).
With `CN(C)c1ccc(N=Cc2nc(-c3ccccc3)oc2OC(=O)c2cccc(Br)c2)cc1` the AC50 was > 38 µM (inactive).
`COc1ccc2cc(N=Cc3nc(-c4ccc(C)cc4)oc3O)cnc2c1` was tested, and the AC50 was > 38 µM (inactive).
`CC(C)CN1CCN(Cc2cccc3ncccc23)CC1CCO` (centres undefined) was tested, and the AC50 was > 38 µM (inactive).
In the case of `CN(N=Nc1ccc([N+](=O)[O-])cc1)c1ccccc1`, the AC50 is reported as 9.51 µM.
For `CN(C)c1ccc(/C=C/c2nc3ccccc3c(=O)[nH]2)cc1`, the AC50 was > 38 µM (inactive).
`Cc1ccnc(N2C(=O)c3cccc4c([N+](=O)[O-])ccc(c34)C2=O)c1` showed an AC50 of 14.8 µM.
In the case of `CN(C)c1ccc(/C=N/NC(=O)c2cnc3ccccc3c2)cc1`, the AC50 is reported as 31.7 µM.
`Cc1cc(C(=O)NNC(=O)CCCCC(=O)NNC(=O)c2cc(C)[nH]n2)n[nH]1` was tested, and the AC50 was < 0.3 µM.
Work on `O=c1cc2c(=O)oc3cc(O)c(O)oc3c2c(O)c1O` yielded an AC50 of 3 µM.
Work on `COc1ccccc1OCC(=O)NNC(=O)c1cnccn1` yielded an AC50 of 35.3 µM.
`CN1CCN(c2ccc([N+](=O)[O-])c3no[n+]([O-])c23)CC1` gave an AC50 of 33.4 µM.
With `COCC(C)N1CCC(Oc2cccc(C(=O)NCCc3ccccc3)c2)CC1` (centres undefined) the AC50 was > 38 µM (inactive).
For `COc1cccc(NC(=O)CSc2nc3ccccc3nc2N2CCOCC2)c1`, the AC50 was > 38 µM (inactive).
In the case of `COc1ccc2c(c1)NP(=S)(Oc1ccccc1)N2` (centres undefined), the AC50 is reported as 12.8 µM.
Work on `O=C(O)c1c2c(nc3ccccc13)/C(=C/c1ccc(O)cc1)CC2` yielded an AC50 of 36.4 µM.
`CCOC(=O)/C(C#N)=C\c1ccc(N2CCN(C/C=C/c3ccccc3)CC2)cc1` showed an AC50 of 7.9 µM.
For `COc1ncnc2c1N=C1CC(C)(C)CC(N)=C1S2`, the AC50 was 19.6 µM.
`COc1cc(C=C2C(=O)c3ccccc3C2=O)cc(OC)c1OC` showed an AC50 of 28.4 µM.
For `Nc1nnc(CC(=O)N/N=C/c2cc([N+](=O)[O-])cc(Br)c2O)s1`, the AC50 was 2.69 µM.
With `CC1(OC(=O)c2ccc(Cl)nc2)C(=O)C=C2C=C(c3ccc(C#N)cc3)OC=C2C1=O` (centres undefined) the AC50 was 20 µM.
`CCCCCCc1cc2cc(C(=O)NC)c(=N)oc2cc1O` showed an AC50 of 6.09 µM.
